Results on two molecules are retold here after US20120022121A1, “INDOLES, DERIVATIVES AND ANALOGS THEREOF AND USES THEREFOR” (priority 2007, published 2012).

Structures are written as SMILES. Read-outs that look alike come from different tables or passages of the source.

One data set concerns PC-3 xenograft. In words: Antitumor activity in PC-3 xenograft. Type of data set: in vivo, Balb/c mice. The following applies: 50, 100, or 150 mg/kg/d, 5 days on/2 days off. Here is the method: PC-3 tumor cells (2×10^6 cells) were suspended in saline and injected S.C. in both flanks of recipient mice (n=15). Tumor size was measured every other day and volume calculated as V=π/6*(length)x(width)^2 (75). […] Tumor growth and body weight was monitored every other day for the remainder of the study.

A short description of data set [1]: Plasma pharmacokinetics in mice. Type of data set: in vivo. The note with it: for bioavailability: read-out: absolute bioavailability. Here is the method: A single dose (10 mg/kg) and various routes of administration (intravenous, oral, and subcutaneous) were used in order to approximate its in vivo disposition and interpret the results of subchronic toxicity studies and forthcoming in vivo xenograft studies. Diindole 13 was administered to groups (n=60) of mice for each route of administration. Mice (n=5 per time point) were sacrificed at up to twelve different time points (pre-dose and up to 24 h post-dose), and plasma samples were stored at −80° C. until HPLC analysis. An HPLC/UV analytical method was developed and validated to determine diindole 13 concentrations in plasma, with a linear range of 0.02 to 20 μg/mL and intra- and inter-day coefficients of variation at all concentrations less than 6%.

The subject of another data set is LNCaP cells. In words: Cell cycle distribution (PI staining, FACS). Type of data set: cell-based, human. The note with it: LNCaP cells, 0, 50, 100 and 200 nM, 24 h. Here is the method:
LNCaP cells were treated with 0, 50, 100 and 200 nM of compound 13 for 24 h (FIG. 11A). Cells were then harvested and fixed with 70% ethanol. Cell cycle distribution was determined by propidium iodide (P1) staining and analyzed by fluorescence-activated cell sorting (FACS) analysis.

A further data set relates to MCF-7. In words: Cell viability SRB assay, 96 h. Type of data set: cell-based. The note with it: Homo sapiens, MCF7; MCF-7, 96 h. The essentials:
(§1)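 SRB staining read out viability after 96 h exposure to compound (0 to 100 μM final, quadruplicate wells). Seeding was 800-5,000 cells/well depending on line; medium carried 10% fetal bovine serum, DMSO under 0.5% v/v.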
In general terms: In SRB staining, fixed cells bind dye roughly in proportion to their protein.

In another data set the test system is HT-29. In words: Cell viability SRB assay, 96 h. Type of data set: cell-based. The note with it: Homo sapiens, HT-29, 96 h. The method, boiled down:
as §1

Data set [2] has as its system MDR cell lines with high levels of P-gp, MRP1, MRP2, or BCRP. In words: Cytotoxicity assay using MDR cell lines. Type of data set: cell-based, human. The note with it: MRP1, MRP2, BCRP over-expressing cells. An excerpt:
(§2) MTT (3-(4,5-dimethylthiazol-2-yl)-2,5-diphenyltetrazolium bromide) assay was also used for the leukemia cell lines. […] Cells were stained with SRB solution or MTT solution.
Since ABC transporters are thought to be one of the major causes of MDR of anticancer drugs, the antitumoral efficacy of 68 was compared with other anticancer drugs in a cytotoxicity assay using MDR cell lines with high levels of P-gp, MRP1, MRP2, or BCRP (Table 1). […] In contrast, the cytotoxicity efficacy of 68 against cancer cells was unaltered by the MDR phenotypes.

For the next data set, the system named is K562. The data set is described as follows: Growth inhibition assay (MTT, 96 h). Type of data set: cell-based. The note with it: Homo sapiens, K562 (parental).
Excerpt: as §2

For data set [3], the system named is T1, tubulin.
T1 construct: IC50 of microtubule formation (tubulin polymerization); other: cell free, turbidity 340 nm, 40 min
In words: In vitro binding assay by spin column. Also noted: species or system bovine. The note with it: vinblastine-binding site, 37° C., 1 h.

The test system of data set [4] is tubulin. The data set is described as follows: In vitro binding assay by spin column. The arrangement: species or system bovine. The following applies: colchicine-binding site, 37° C., 1 h.
A further data set has as its system HEK293-482R2. In words: Growth inhibition assay (96 h). Type of data set: cell-based, human.
Another data set deals with PC-3 xenografts. The data set is described as follows: In vivo antitumor efficacy, PC-3 xenograft. The note with it: for tumor growth inhibition: PC-3 xenograft, 2 days/week, 4 weeks.
[5] abbreviates: mouse, plasma, iv, 10 mg/kg, I.V.
[6] abbreviates: mouse, plasma, po, 10 mg/kg, P.O.
Where [7] appears, read: mouse, plasma, sc, 10 mg/kg, S.C.

With `O=C(c1cccc(-c2cc3ccccc3[nH]2)c1)c1cc2ccccc2[nH]1` [Compound 13, (1H-indol-2-yl)-[3-(1H-indol-2-yl)phenyl]methanone], in the data set on PC-3 xenograft, the tumor growth result was “suppressed tumor growth in a dose-dependent manner”. Further, in data set [1], the “metabolism (LC/MS/MS analysis of metabolites)” value is recorded as “extensive oxidative metabolism with subsequent sulfation” and the “volume of distribution relative to total body water (0.6 L/kg)” value is listed as “about 10 fold”. The molecule also came in with a F in data set [1] (10 mg/kg, I.V.) of 1.00. In [1] (10 mg/kg, P.O.), this molecule came in with a CL of 14.3 L/h/kg and an F of 0.20. In [1] (10 mg/kg, S.C.), the CL worked out at 5.7 L/h/kg and the F stood at 0.73. In [1] (after intravenous administration), the “drug excreted unchanged in urine and feces” value is on record as “less than 5%”. In addition, the hepatic extraction result in data set [1] (from clearance and hepatic blood flow […]) is recorded as “exceeding 0.75”. The bioavailability in data set [1] (mouse, plasma, 10 mg/kg, oral (P.O.)) worked out at 29%. Moreover, in data set [1] (setting [5]), the AUC worked out at 2410 ng·h/mL, the highest concentration (Cmax) was 2860 ng/mL, the Tmax came to 0.08 h and the clearance was roughly 66.7 mL/min/kg. Further, in data set [1] (setting [5]), the half-life is less than 180 min. Also, the Vd in data set [1] (mouse, plasma, iv, 10 mg/kg, I.V., read-out: Vss) was found to be 6.35 L/kg. In data set [1] (setting [6]), the AUC worked out at 690 ng·h/mL, the highest level (Cmax) was 120 ng/mL, the Tmax was roughly 3 h and the half-life was 178 min. For the same molecule, in [1] (setting [7]), the AUC is 1770 ng·h/mL, the Cmax turned out to be 310 ng/mL, the Tmax is roughly 3 h and the half-life is 271 min. The bioavailability in data set [1] (mouse, plasma, sc, 10 mg/kg, subcutaneous (S.C.)) worked out at 73%. For the same molecule, the cell cycle arrest result in the data set on LNCaP cells is listed as “induces G2/M phase arrest”. In addition, half-maximal inhibition in the data set with MCF-7 (IC50) required 162 nM. The IC50 with HT-29 turned out to be 62 nM.

Take `COc1cc(C(=O)c2cccc(-c3cc4ccccc4[nH]3)c2)cc(OC)c1OC` [Compound 68, [3-(1H-Indol-2-yl)-phenyl]-(3,4,5-trimethoxy-phenyl)-methanone]: in data set [2], the “cytotoxicity efficacy against cancer cells with MDR phenotypes” value is given as “unaltered”. Also, the half-inhibitory concentration (IC50) in the data set on K562 is 23.6 ± 2.4 nM; in the data set on HEK293-482R2 (Homo sapiens, HEK293-482R2, BCRP over-expressed, 96 h) it was 13.6 ± 1.3 nM. Further, the “displacement of [3H]vinblastine from tubulin” value in the data set with tubulin [3] is given as “not able to displace”. For the same molecule, the “[3H]podophyllotoxin binding to tubulin” value in the data set on tubulin [4] was “inhibited”. In the data set on HEK293-482R2 (HEK293-482R2 (BCRP) vs HEK293-pcDNA3-10), the “resistance factor (ratio of IC50 resistant subline to parental cell line)” value was “(1.0)”. The tolerability entry in the data set with PC-3 xenografts (PC-3 xenograft mice, 5 and 10 mg/kg twice weekly) is “well tolerated”. Further, the tumor growth inhibition in the data set on PC-3 xenografts (5 mg/kg i.p.) is given as 36%; in the data set on PC-3 xenografts (10 mg/kg i.p.), 68%.

In general, bioavailability refers to dose-corrected exposure relative to a reference, in per cent. What is called AUC is the area under the concentration-time curve, a measure of exposure. Lower therefore signals low exposure. By Cmax is commonly meant the highest concentration seen after dosing. Broadly, the Tmax is the time at which the peak concentration occurs. One may read the clearance as a measure of how efficiently the substance is removed, as volume per time. Read a low clearance as inefficient removal. For orientation: half-life means the time needed for the level to fall by half in the phase considered. Low values mean fast loss, high ones slow loss. Usually IC50 stands for the concentration at which inhibition is half-maximal.
